# Measured values taken from patent US20100249439A1, “PROCESS FOR CONTROLLED CRYSTAL SIZE IN 1,2-SUBSTITUTED 3,4-DIOXO-1-CYCLOBUTENE COMPOUNDS” (priority 2007, published 2010).
# Test: Specific cake resistance measurement (pressure filtration of crystal slurry, Tiller equation)
# Format: physicochemical
# Protocol: There follows examples of the present invention controlled crystallization process yielding crystalline material having improved filter cake specific resistance. For each of these examples, the filter cake specific resistance was measured in accordance with the following procedure. Specific Cake Resistance Measurement Procedure V(i): Into a pressure filter, the crystal slurry was filled. The filtration was then carried out under a constant pressure while the filtrate volume along with the filtration time was logged. During the cake formation, the relationship between the filtrate volume and the filtration time can be described by the Tiller equation: [formula] where: μ is the viscosity of filtrate, lb/ft-s or Pa·s; α is a specific cake resistance, ft, lb or […]; c is the mass solid deposited in the filter per unit volume of filtrate, lb/ft^3 or kg/m^3: A is the filtration area, ft^2 or m^2; gc is Newton's law proportionality factor; p is the pressure, lbf/ft2 or atm; Rm is the filter-medium resistance, ft^−1 or m^−1. The specific cake resistance a can be calculated from the slope of the linear plot of t/V vs. V.
structure (smiles),measurement,setting,value
"CC[C@@H](Nc1c(Nc2cccc(C(=O)N(C)C)c2O)c(=O)c1=O)c1ccc(C)o1 [compound of Formula I, 2-Hydroxy-N,N-dimethyl-3-[[2-[[1(R)-(5-methyl-2-furanyl)propyl]amino]-3,4-dioxo-1-cyclobuten-1-yl]amino]benzamide]",filter cake specific resistance,"Form 4 crystals precipitated from the reaction mixture of Scheme IIa steps a and b, conventional crystallization without temperature cycling",about 8.0×10^11 m/kg
same,filter cake specific resistance,"Form 4 monohydrate crystals from n-propanol/water after seeding and temperature cycling (Va: 4 cycles 53-20° C.; Vb: 8 cycles; Vc: 19 cycles 43-20° C.), listed as Example Va",6.4×10^11 m/Kg
same,filter cake specific resistance,"Form 4 monohydrate crystals from n-propanol/water after seeding and temperature cycling (Va: 4 cycles 53-20° C.; Vb: 8 cycles; Vc: 19 cycles 43-20° C.), listed as Example Vb",2.5×10^11 m/Kg
same,filter cake specific resistance,"Form 4 monohydrate crystals from n-propanol/water after seeding and temperature cycling (Va: 4 cycles 53-20° C.; Vb: 8 cycles; Vc: 19 cycles 43-20° C.), listed as Example Vc",1.99×10^11 m/Kg
